Experimental data taken from paper PMC7589491, “Biomimetic Artificial Membrane Permeability Assay over Franz Cell Apparatus Using BCS Model Drugs” (Pharmaceutics, 2020).
Read-outs that look alike come from different tables or passages of the source.

What was measured:
Caco-2 cells = conditions: cited from earlier work
[1] = cited from earlier work
[2] = parameters: method as in PMID 25840123; conditions: cited from earlier work
[3] = cited from earlier work; remark: listed apart in the source
[4] = Franz–PAMPA permeation study (lipid-impregnated artificial membrane on Franz cells); conditions: for Papp at 12 h, 10 mg/mL: PAMPA; for Permeability classification in Franz–PAMPA: metoprolol as high permeability marker, best fit method
[5] = pH 7.4; cited from earlier work
[6] = Dose number (D0) in donor compartment; type: physicochemical; conditions: 10 mg/mL in donor, not under infinite dose conditions
[7] = fraction of dose absorbed in humans; cited from earlier work
[8] = cited from earlier work; remark: listed apart in the source
in vitro = conditions: PAMPA
[9] = Permeation across non-impregnated membrane on Franz cells; type: in vitro ADME; conditions: PAMPA, pH 7.4; as worded; read-out: Papp non-impregnated one across Franz–PAMPA
[10] = pH 7.4, Papp Franz–PAMPA, PBS pH 7.4, 37 °C, 500 rpm, 12 h, n = 3, best fit of linear portion (sink equation)
[11] = pH 7.4, Papp Non-Sink Arthurson, Franz–PAMPA data, non-sink equation
[12] = pH 7.4, Papp Non-Sink Arthurson
[13] = pH 7.4, Papp across Franz–PAMPA

Row | Papp at 12 h, 10 mg/mL [4, 10] [×10⁻⁶ cm/s] | Papp at 12 h, 10 mg/mL [4, 11] [×10⁻⁶ cm/s] | D0 [6] | Structure (SMILES) | Papp Caco-2 (Caco-2 cells) [×10⁻⁶ cm/s] | Papp Corti [1] [×10⁻⁶ cm/s] | Log D pH 7.4 [3] | Papp PAMPA pH 7,4 [5] | Fa(%) [7] [%] | Intrinsic Solubility [8] [mg/mL] | also measured
1 | 0.4 | 0.4 | – | Nc1nc2c(ncn2COCCO)c(=O)[nH]1 [Acyclovir] | 0.3 | 9.1 | −1.7 | – | – | – | Papp Permeapad™ [2]: 7.9 ×10⁻⁶ cm/s; LogP [3]: −1.7
2 | – | – | ≤ 0.01 | CC(C)NCC(O)COc1ccc(CC(N)=O)cc1 (stereo not shown) [Atenolol] | – | – | – | – | – | – | –
3 | 35.6 | 31 | – | CN/C(=N/CCSCc1nc[nH]c1C)NC#N [Cimetidine] | 0.7 | – | 0.4 | – | 93 | 6.0 | Permeability classification in Franz–PAMPA [4]: highly permeable
4 | – | – | – | O=C(O)Cc1ccccc1Nc1c(Cl)cccc1Cl [Diclofenac] | – | – | 1.2 | – | 100 | – | Permeability classification in Franz–PAMPA: highly permeable; Papp at 12 h, 10 mg/mL (in vitro; pH 7.4, Papp Franz–PAMPA): 68.1 ×10⁻⁶ cm/s; Papp at 12 h, 10 mg/mL (in vitro; [12]): 105 ×10⁻⁶ cm/s
5 | – | – | – | NS(=O)(=O)c1cc2c(cc1Cl)NCNS2(=O)=O [Hydrochlorothiazide] | 0.5 | 31 | – | 0.1 × 10^−6 cm/s | 70 | – | Papp at 12 h, 10 mg/mL (in vitro; pH 7.4, Papp Franz–PAMPA): 2.74 ×10⁻⁶ cm/s; Papp at 12 h, 10 mg/mL (in vitro; [12]): 2.7 ×10⁻⁶ cm/s
6 | – | – | – | CC(C)Cc1ccc(C(C)C(=O)O)cc1 (stereo not shown) [Ibuprofen] | – | – | 0.7 | 6.8 × 10^−6 cm/s | 93 | 0.01 | Papp Permeapad™ [2]: 16.6 ×10⁻⁶ cm/s; LogP [3]: 3.1
7 | 12.1 | – | – | CC(C(=O)O)c1cccc(C(=O)c2ccccc2)c1 (stereo not shown) [Ketoprofen] | 20.1 | 42.7 | – | 16.7 × 10^−6 cm/s | – | – | –
8 | – | – | – | OC[C@@H](O)[C@@H](O)[C@H](O)[C@H](O)CO [Mannitol] | – | – | – | – | – | – | Papp at 10 mg/mL [9]: 0.32 ×10⁻⁶ cm/s; Papp at 12 h, 10 mg/mL [4, 13]: 0.32 ×10⁻⁶ cm/s
9 | – | – | – | C[C@](N)(Cc1ccc(O)c(O)c1)C(=O)O [Methyldopa] | 0.2 | 3.2 | – | – | 41 | – | LogP [3]: 0.4
10 | 15.8 | 59 | ≤ 0.01 | COCCc1ccc(OCC(O)CNC(C)C)cc1 (stereo not shown) [Metoprolol] | 23.7 | 48.1 | – | 3.5 × 10^−6 cm/s | – | 1000.0 | Papp at 10 mg/mL [9]: 16.1 ×10⁻⁶ cm/s; Papp Permeapad™ [2]: 1 ×10⁻⁶ cm/s; Papp at 12 h, 10 mg/mL [4, 13]: 16.1 ×10⁻⁶ cm/s
11 | – | – | ≤ 0.01 | COc1ccc2cc([C@H](C)C(=O)O)ccc2c1 [Naproxen] | – | – | – | – | – | – | –
12 | 11 | 9.6 | – | CN1C(C(=O)Nc2ccccn2)=C(O)c2ccccc2S1(=O)=O [Piroxicam] | 35.6 | – | −0.07 | 8.2 × 10^−6 cm/s | 100 | 0.11 | Permeability classification in Franz–PAMPA [4]: low permeability drugs
13 | 33.1 | 88.4 | ≤ 0.01 | CC(C)NCC(O)COc1cccc2ccccc12 (stereo not shown) [Propranolol] | 41.9 | 39.7 | – | 23.5 × 10^−6 cm/s | – | 33.0 | Permeability classification in Franz–PAMPA [4]: highly permeable
14 | 6.81 | 5.3 | ≤ 0.01 | CNC(=C[N+](=O)[O-])NCCSCc1ccc(CN(C)C)o1 [Ranitidine] | 0.5 | 21.5 | −0.3 | 0.5 × 10^−6 cm/s | – | 100.0 | –
15 | – | – | – | Cn1c(=O)c2[nH]cnc2n(C)c1=O [Theophylline] | – | – | −0.05 | – | – | 8.33 | –
16 | 6.61 | 7.7 | – | COc1cc(Cc2cnc(N)nc2N)cc(OC)c1OC [Trimethoprim] | 83 | 45.5 | – | 5.0 × 10^−6 cm/s | 97 | – | –

Row | Structure (SMILES) | Papp at 12 h, 10 mg/mL [4, 10] [×10⁻⁶ cm/s] | Papp at 12 h, 10 mg/mL [4, 11] [×10⁻⁶ cm/s] | D0 [6] | Papp Caco-2 (Caco-2 cells) [×10⁻⁶ cm/s] | Papp Corti [1] [×10⁻⁶ cm/s] | Log D pH 7.4 [3] | Papp PAMPA pH 7,4 [5] | Fa(%) [7] [%] | Intrinsic Solubility [8] [mg/mL] | also measured
17 | CC1(C)S[C@@H]2[C@H](NC(=O)[C@H](N)c3ccc(O)cc3)C(=O)N2[C@H]1C(=O)O [Amoxicillin] | 0.85 | 0.07 | – | 0.8 | – | – | 1.5 × 10^−6 cm/s | – | – | LogP [3]: 0.9
18 | Cn1c(=O)c2c(ncn2C)n(C)c1=O [Caffeine] | 36.2 | 53.3 | ≤ 0.01 | – | 41.1 | – | 10.8 × 10^−6 cm/s | – | – | Papp Permeapad™ [2]: 20.4 ×10⁻⁶ cm/s; Permeability classification in Franz–PAMPA [4]: highly permeable
19 | NC(=O)N1c2ccccc2C=Cc2ccccc21 [Carbamazepine] | 5.97 | – | – | – | – | – | – | 100 | 0.12 | –
